1 compound from EP3290040A1, “PROPHYLACTIC AND THERAPEUTIC AGENT FOR COMPLICATIONS AFTER CATARACT SURGERY” (Honjo, Megumi, priority 2015, dated 2016) can be followed below.

Common to all, as to type: cell-based
One assay deals with Human normal fibroblasts. In words: Fibroblast proliferation, BrdU incorporation (Cell Proliferation ELISA BrdU kit). The note with it: cultured 2 days, no added Ripasudil = 100%. On the procedure:
Human normal fibroblasts (Sanko Junyaku Co., Ltd.) were seeded at 2000 cells/well and cultured overnight. Next day, the medium (FGM-2 (Sanko Junyaku Co., Ltd.)) was exchanged (150 µL) and then Ripasudil was added in a volume of 10 µL to make final concentrations of 0.1 µM, 1.0 µM, and 10.0 µM. […] Fixation and antibody addition, washing and color development, and reaction stopping were performed according to the protocol of the Cell Proliferation ELISA BrdU kit (Roche). Then, a plate reader was used to measure OD540-620 to evaluate the action of Ripasudil on fibroblast proliferation. […]
For orientation: Uptake of a labelled nucleoside into DNA is a usual measure of proliferation.

Assay [1] has as its system Human lens epithelial cells (SRA 01/04). In words: Cell proliferation (DNA synthesis ability) of lens epithelial cells, BrdU incorporation ELISA. The note with it: SRA 01/04 cells, 24 hours, FIG. 1. How it is done: Human lens epithelial cells (SRA 01/04 (RIKEN Cell Bank)) were cultured using 20% FBS-DMEM medium under conditions at 37°C and 5% CO2. The concentration of SRA 01/04 cells was adjusted using 2% FBS-DMEM medium, and the cells were seeded in a 96-well plate at 100 µL/well (5000 cells/well) and incubated for 24 hours under conditions at 37°C and 5% CO2. The medium was exchanged to 5% FBS-DMEM medium, to which TGFβ was added at 10 ng/mL (final concentration) or Ripasudil at 10, 30, or 100 µM (final concentration), and then the cells were cultured for another 24 hours. The cell proliferation ELISA, BrdU (colorimetric) kit (Roche) was used to measure the amount of intracellular 5-bromo-2'-deoxyuridine (BrdU) incorporation at a measurement wavelength of 450 nm with Multiskan MS version 8.0 (LABSYSTEMS), thereby to evaluate the effect on the cell proliferation of SRA 01/04 cells.

A further assay has as its system HT-1080 cell. In words: Inhibitory action on collagen gel contraction (cell-containing collagen gel). Set-up: key: When a contraction level was almost equal to that of a group to which Ripasudil was not added, (+) was used; (++) was used in the case where contraction was inhibited; (+++) was used in the case where contraction was significantly inhibited. The note with it: HT1080 collagen gel, observed after two or three days. How it is done: HT-1080 cell suspension adjusted to a density of 150,000 to 200,000 cells/mL with a medium (medium: E'MEM (Sigma)/10% FBS/NEAA/PCSM), and a solution, obtained by mixing A, B and C solutions (A solution: Cellmatrix (Collagen Type I 3 mg/mL), B solution: concentrated culture medium, 10 x MEM Hank's culture medium, and C solution: buffer for reconstitution) of collagen gel culture kit (Nitta Gelatin Inc.) mixed at a ratio of 8 : 1 : 1 and cooling the obtained mixture, were mixed at a ratio of 1.4 : 1, and the obtained mixture was seeded in a 48 Well Plate at 500 µL/well and gelatinized in a CO2 incubator to produce a cell-containing collagen gel. After gelation, 1 mL of the medium in which Ripasudil was adjusted to 0.1 µM, 1.0 µM or 10.0 µM was added on the gel, and an injection needle was inserted between the gel and the wall surface to release the gel from the wall surface, and the gel was incubated to stand in a CO2 incubator. After two or three days, the contraction of the gel was observed, and photos were taken to evaluate the actions of Ripasudil.

Turning to `C[C@H]1CNCCCN1S(=O)(=O)c1cccc2cncc(F)c12` [Ripasudil, 4-fluoro-5-{[(2S)-2-methyl-1,4-diazepan-1-yl]sulfonyl}isoqu inoline], the “BrdU incorporation (% of control)” value in the assay on Human normal fibroblasts (Ripasudil 0.1 µM) is listed as 80.0 % of control; in the assay with Human normal fibroblasts (Ripasudil 1.0 µM), 59.3 % of control; with Human normal fibroblasts (Ripasudil 10.0 µM), 10.9 % of control. Moreover, the “DNA synthesis of human lens epithelial cells” value in assay [1] (Ripasudil 30 µM) is “statistically significant decrease”; in assay [1] (Ripasudil 10, 30 or 100 µM) it was “dose-dependent inhibitory action”. The values for the Inhibition of contraction result with HT-1080 cell (Ripasudil 0.1 µM), in the assay on HT-1080 cell (Ripasudil 1.0 µM) and with HT-1080 cell (Ripasudil 10.0 µM) were “+”, “++” and “+++”, respectively.
